Experimental data as given in patent US9540366B2, “Ring-fused heterocyclic compound” (Kyowa Hakko Kirin Co., Ltd., priority 2012, dated 2017).
Where two headings read alike, the source gives them in different places.

Target: T1, human Cav3.2 T-type Ca2+ channel (Homo sapiens, UniProt O95180)
T1 construct: expressed in transfected cells; host or cells: KJMGER8 cells (Namalwa cell-derived cell line)
Assay: Inhibitory effect for intracellular calcium response via Cav3.2 T-type Ca2+ channels (FLIPR Calcium 3 Assay Kit)
Format: cell-based

T1 sequence (O95180 whole entry): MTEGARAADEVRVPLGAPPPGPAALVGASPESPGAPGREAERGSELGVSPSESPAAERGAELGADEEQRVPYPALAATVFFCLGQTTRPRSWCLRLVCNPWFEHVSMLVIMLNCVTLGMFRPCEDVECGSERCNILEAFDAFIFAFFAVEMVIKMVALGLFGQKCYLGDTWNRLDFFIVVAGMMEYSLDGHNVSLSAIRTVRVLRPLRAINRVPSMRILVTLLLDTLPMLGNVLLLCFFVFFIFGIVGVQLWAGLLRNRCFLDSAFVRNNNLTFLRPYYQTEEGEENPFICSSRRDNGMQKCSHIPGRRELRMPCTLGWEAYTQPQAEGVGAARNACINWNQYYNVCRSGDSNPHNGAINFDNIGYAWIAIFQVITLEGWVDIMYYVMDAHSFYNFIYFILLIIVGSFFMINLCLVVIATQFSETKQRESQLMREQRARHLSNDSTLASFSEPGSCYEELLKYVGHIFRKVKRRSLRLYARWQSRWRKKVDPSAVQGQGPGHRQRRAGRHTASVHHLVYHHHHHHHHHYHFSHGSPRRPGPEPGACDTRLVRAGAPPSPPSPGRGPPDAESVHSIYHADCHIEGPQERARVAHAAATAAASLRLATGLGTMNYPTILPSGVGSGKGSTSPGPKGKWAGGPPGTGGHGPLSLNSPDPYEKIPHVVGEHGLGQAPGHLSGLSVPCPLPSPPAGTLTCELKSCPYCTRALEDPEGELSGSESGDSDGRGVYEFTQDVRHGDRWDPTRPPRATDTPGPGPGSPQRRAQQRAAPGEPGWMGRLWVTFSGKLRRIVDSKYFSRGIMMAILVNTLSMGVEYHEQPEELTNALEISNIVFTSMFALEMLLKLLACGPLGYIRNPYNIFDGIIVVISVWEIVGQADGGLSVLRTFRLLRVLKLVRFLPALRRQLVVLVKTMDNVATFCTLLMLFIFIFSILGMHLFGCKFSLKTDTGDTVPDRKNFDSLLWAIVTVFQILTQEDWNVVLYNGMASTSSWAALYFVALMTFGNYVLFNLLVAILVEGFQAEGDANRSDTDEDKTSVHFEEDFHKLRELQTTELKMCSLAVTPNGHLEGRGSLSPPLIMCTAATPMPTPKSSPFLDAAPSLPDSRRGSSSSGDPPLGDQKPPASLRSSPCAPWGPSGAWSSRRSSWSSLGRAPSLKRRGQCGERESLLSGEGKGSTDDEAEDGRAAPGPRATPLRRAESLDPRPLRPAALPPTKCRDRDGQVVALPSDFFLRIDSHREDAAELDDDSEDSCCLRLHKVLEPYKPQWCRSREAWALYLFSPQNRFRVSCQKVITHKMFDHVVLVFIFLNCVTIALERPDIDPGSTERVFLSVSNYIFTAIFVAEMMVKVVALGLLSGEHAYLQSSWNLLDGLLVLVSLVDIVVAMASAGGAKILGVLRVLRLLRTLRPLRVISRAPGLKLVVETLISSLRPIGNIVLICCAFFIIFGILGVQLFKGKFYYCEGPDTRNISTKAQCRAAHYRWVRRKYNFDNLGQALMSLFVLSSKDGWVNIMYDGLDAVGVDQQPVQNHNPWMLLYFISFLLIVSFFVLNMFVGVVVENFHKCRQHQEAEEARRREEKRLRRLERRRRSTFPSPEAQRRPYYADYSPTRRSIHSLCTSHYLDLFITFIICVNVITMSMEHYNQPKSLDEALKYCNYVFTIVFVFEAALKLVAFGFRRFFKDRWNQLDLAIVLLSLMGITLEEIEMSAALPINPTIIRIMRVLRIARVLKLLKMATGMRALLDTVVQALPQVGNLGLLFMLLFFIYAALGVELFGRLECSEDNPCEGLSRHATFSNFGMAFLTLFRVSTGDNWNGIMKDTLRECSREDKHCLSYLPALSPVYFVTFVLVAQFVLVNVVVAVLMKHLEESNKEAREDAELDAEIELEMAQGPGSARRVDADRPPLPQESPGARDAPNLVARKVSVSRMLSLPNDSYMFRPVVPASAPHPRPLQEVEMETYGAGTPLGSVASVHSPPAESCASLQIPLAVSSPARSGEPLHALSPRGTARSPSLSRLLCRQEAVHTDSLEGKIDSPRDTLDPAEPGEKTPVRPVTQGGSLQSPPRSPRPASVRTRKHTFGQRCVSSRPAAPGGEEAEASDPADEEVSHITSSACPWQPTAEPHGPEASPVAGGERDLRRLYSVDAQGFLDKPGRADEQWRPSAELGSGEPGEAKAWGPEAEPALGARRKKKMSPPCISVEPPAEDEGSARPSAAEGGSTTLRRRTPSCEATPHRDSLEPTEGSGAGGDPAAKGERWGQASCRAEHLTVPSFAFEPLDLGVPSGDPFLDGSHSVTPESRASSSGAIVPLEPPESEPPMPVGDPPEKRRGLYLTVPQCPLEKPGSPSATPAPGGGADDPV

Row | Structure (SMILES) | IC50 [nM] | IC50 (human Cav3.2-expressing KJMGER8 cells (Namalwa-derived), calcium response induced by 5 mmol/L CaCl2, 3 μmol/L mibefradil as reference, read-out: IC50 for the human Cav3.2 T-type Ca2+ current) [nM]
1 | CCOC(C)(C)c1nc2cc(C(=O)NC3CCOCC3)cc(C)n2c1CC1CCC(F)(F)CC1 [Compound 1, 3-[(4,4-Difluorocyclohexyl)methyl]-2-(2-ethoxypropan-2-yl)-5-methyl-N-(tetrahydro-2H-pyran-4-yl)imidazo[1,2-a]pyridine-7-carboxamide] | ≤ 100 | 
2 | CC1(CNC(=O)c2cc(C#N)n3c(CC4CCC(F)(F)CC4)c(C(F)(F)F)nc3c2)CCCO1 (stereo not drawn) [Compound 2, 5-Cyano-3-[(4,4-difluorocyclohexyl)methyl]-N-[(2-methyltetrahydrofuran-2-yl)methyl]-2-(trifluoromethyl)imidazo[1,2-a]pyridine-7-carboxamide] | ≤ 100 | 
3 | N#Cc1cc(C(=O)NCC2CCOC2)cc2nc(C(F)(F)F)c(CC3CCC(F)(F)CC3)n12 (stereo not drawn) [Compound 3, 5-Cyano-3-[(4,4-difluorocyclohexyl)methyl]-N-[(tetrahydrofuran-3-yl)methyl]-2-(trifluoromethyl)imidazo[1,2-a]pyridine-7-carboxamide] | ≤ 100 | 
4 | Cc1cc(C(=O)NC2CCOCC2)cc2nc(C(C)(C)C)c(CC3CCC(F)(F)CC3)n12 [Compound 4, 2-tert-Butyl-3-[(4,4-difluorocyclohexyl)methyl]-5-methyl-N-(tetrahydro-2H-pyran-4-yl)imidazo[1,2-a]pyridine-7-carboxamide] | ≤ 100 | 
5 | CC(F)(F)c1nc2cc(C(=O)Nc3ccccc3)c(Cl)cn2c1CC1CCC(F)(F)CC1 [Compound 5, 6-Chloro-3-[(4,4-difluorocyclohexyl)methyl]-2-(1,1-difluoroethyl)-N-phenylimidazo[1,2-a]pyridine-7-carboxamide] | ≤ 100 | 
6 | O=C(Nc1ccccc1)c1cc2nc(C3CC3)c(CC3CCC(F)(F)CC3)n2cc1Cl [Compound 6, 6-Chloro-2-cyclopropyl-3-[(4,4-difluorocyclohexyl)methyl]-N-phenylimidazo[1,2-a]pyridine-7-carboxamide] | ≤ 100 | 
7 | O=C(Nc1ccccc1)c1cc2nc(C3CC(F)(F)C3)c(CC3CCC(F)(F)CC3)n2cc1Cl [Compound 7, 6-Chloro-2-(3,3-difluorocyclobutyl)-3-[(4,4-difluorocyclohexyl)methyl]-N-phenylimidazo[1,2-a]pyridine-7-carboxamide] | ≤ 100 | 
8 | Cc1cc(C(=O)Nc2ccccc2)cc2nc(C(C)(C)O)c(CC3CCC(F)(F)CC3)n12 [Compound 8, 3-[(4,4-Difluorocyclohexyl)methyl]-2-(2-hydroxypropan-2-yl)-5-methyl-N-phenylimidazo[1,2-a]pyridine-7-carboxamide] | ≤ 100 | 
9 | Cc1cc(C(=O)NC2CCC(F)(F)CC2)cc2nc(C(C)(C)O)c(CC3CCC(F)(F)CC3)n12 [Compound 9, N-(4,4-Difluorocyclohexyl)-3-[(4,4-difluorocyclohexyl)methyl]-2-(2-hydroxypropan-2-yl)-5-methylimidazo[1,2-a]pyridine-7-carboxamide] |  | ≤ 100
10 | Cc1cc(C(=O)NC2CC(F)(F)C2)cc2nc(C(C)(C)O)c(CC3CCC(F)(F)CC3)n12 [Compound 10, N-(3,3-Difluorocyclobutyl)-3-[(4,4-difluorocyclohexyl)methyl]-2-(2-hydroxypropan-2-yl)-5-methylimidazo[1,2-a]pyridine-7-carboxamide] | ≤ 100 | 
11 | [2H]C([2H])([2H])OC(C)(C)c1nc2cc(C(=O)NC3CCOCC3)cc(C)n2c1CC1CCC(F)(F)CC1 [Compound 11, 3-[(4,4-Difluorocyclohexyl)methyl]-2-(2-methoxy-d3-propan-2-yl)-5-methyl-N-(tetrahydro-2H-pyran-4-yl)imidazo[1,2-a]pyridine-7-carboxamide] | ≤ 100 | 
12 | O=C(NC1CCC(F)(F)CC1)c1cc2nc(C3CC3)c(CC3CCC(F)(F)CC3)n2cc1Cl [Compound 14, 6-Chloro-2-cyclopropyl-N-(4,4-difluorocyclohexyl)-3-[(4,4-difluorocyclohexyl)methyl]imidazo[1,2-a]pyridine-7-carboxamide] | ≤ 100 | 
